The source made the active and inactive calls. No cut-off for these calls is given here.
How the values were obtained:
SMMC-7721 [1] = experiment: Effect on putrescine levels in human SMMC7721 cells at 20 uM after 24 hrs by HPLC analysis; format: functional, cell-based
[2] = Drug uptake in human HepG2 cells assessed as PAT-mediated cellular uptake after 8 hrs by HCS analysis; format: ADME, cell-based
HepG2 [3] = experiment: Induction of cleaved caspase 3 expression in human HepG2 cells up to 20 uM pre-treated with NAC measured after 24 hrs by Western blot analysis; format: functional, cell-based
HepG2 [4] = experiment: Antiproliferative activity against human HepG2 cells assessed as reduction in cell viability at 20 uM pre-treated with TOC after 48 hrs by MTT assay; format: functional, cell-based
HepG2 [5] = experiment: Induction of p53 expression in human HepG2 cells up to 20 uM pre-treated with NAC after 24 hrs by Western blot analysis relative to control; format: functional, cell-based
HepG2 [6] = experiment: Cytotoxicity against human HepG2 cells assessed as effect on cell viability at 5 to 20 uM after 24 hrs in absence of spermidine by MTT assay; format: functional, cell-based
HepG2 [7] = experiment: Inhibition of cell migration in human HepG2 cells pretreated with NAC measured after 24 hrs by transwell assay; format: functional, cell-based
SMMC-7721 [8] = experiment: Effect on spermine levels in human SMMC7721 cells at 20 uM after 24 hrs by HPLC analysis; format: functional, cell-based
Mus musculus [9] = experiment: Toxicity in Kunming mouse xenografted with […] cells assessed as effect on heart weight index at 3 mg/kg, iv dosed every day starting from day 8 after tumor cell inoculation; format: organism-based; details: in vivo
HepG2 [10] = experiment: Effect on spermine levels in human HepG2 cells at 20 uM after 24 hrs by HPLC analysis; format: functional, cell-based
Mus musculus [11] = experiment: Toxicity in Kunming mouse xenografted with […] cells assessed as effect on liver weight index at 3 mg/kg, iv dosed every day starting from day 8 after tumor cell inoculation; format: organism-based; details: in vivo
HepG2 [12] = experiment: Induction of ROS generation in human HepG2 cells at 20 uM after 24 hrs in presence of CAT by DCFH-DA-staining based HCS analysis; format: functional, cell-based
SMMC-7721 [13] = experiment: Antiproliferative activity against human SMMC7721 cells assessed as reduction in cell viability at 20 uM pre-treated with CAT after 48 hrs by MTT assay; format: functional, cell-based
Mus musculus [14] = experiment: Toxicity in Kunming mouse xenografted with […] cells assessed as effect on spleen weight index at 3 mg/kg, iv dosed every day starting from day 8 after tumor cell inoculation; format: organism-based; details: in vivo
HepG2 [15] = experiment: Antiproliferative activity against human HepG2 cells assessed as reduction in cell viability at 20 uM pre-treated with NAC after 48 hrs by MTT assay; format: functional, cell-based
HepG2 [16] = experiment: Induction of apoptosis in human HepG2 cells assessed as up-regulation of caspase 3 expression up to 20 uM after 24 hrs by Western blot analysis; format: functional, cell-based
HepG2 [17] = experiment: Induction of apoptosis in human HepG2 cells assessed as viable cells at 20 uM after 24 hrs by Annexin V-FITC/propidium iodide staining based flow cytometric analysis (reference value: 86 %); format: functional; details: HepG2, 24 h, read-out: Activity
HepG2 [18] = experiment: Induction of apoptosis in human HepG2 cells assessed as necrotic cells at 20 uM after 24 hrs by Annexin V-FITC/propidium iodide staining based flow cytometric analysis (reference value: 2.99 %); format: functional
HepG2 [19] = experiment: Induction of apoptosis in human HepG2 cells assessed as upregulation of cleaved caspase 3 after 24 hrs by immunofluorescence analysis; format: functional, cell-based
SMMC-7721 [20] = experiment: Antiproliferative activity against human SMMC7721 cells assessed as reduction in cell viability at 20 uM pre-treated with NAC after 48 hrs by MTT assay; format: functional, cell-based
[21] = Drug uptake in human HepG2 cells assessed as PAT-mediated compound uptake by measuring fluorescent intensity at 5 to 10 uM after 6 hrs in presence of spermidine by HCS analysis; format: ADME, cell-based
HepG2 [22] = experiment: Induction of cleaved PARP expression in human HepG2 cells up to 20 uM pre-treated with NAC measured after 24 hrs by Western blot analysis; format: functional, cell-based
Mus musculus [23] = experiment: Toxicity in Kunming mouse xenografted with […] cells assessed as effect on kidney weight index at 3 mg/kg, iv dosed every day starting from day 8 after tumor cell inoculation; format: organism-based; details: in vivo
SMMC-7721 [24] = experiment: Antimigratory activity against human SMMC7721 cells incubated for 24 hrs by transwell assay; format: functional, cell-based
[25] = Drug uptake in human HepG2 cells assessed as PAT-mediated cellular uptake at 10 uM by HCS analysis; format: ADME, cell-based; details: TDE = time-dependent effect
HepG2 [26] = experiment: Effect on spermidine levels in human HepG2 cells at 20 uM after 24 hrs by HPLC analysis; format: functional, cell-based
HepG2 [27] = experiment: Induction of p53 expression in human HepG2 cells up to 20 uM after 24 hrs by immunofluoresence assay relative to control; format: functional, cell-based
[28] = Drug localization in human HepG2 cell golgi apparatus at 10 uM after 8 hrs by Golgi tracker-staining based confocal microscopic analysis; format: ADME
SMMC-7721 [29] = experiment: Inhibition of colony formation of human SMMC7721 cells up to 20 uM […] by crystal violet staining based colony formation assay; format: functional, cell-based
HepG2 [30] = experiment: Induction of apoptosis in human HepG2 cells assessed as reduction in viable cells up to 20 uM after 24 hrs by AO/EB double staining based flow cytometric analysis; format: functional, cell-based
H22 = experiment: Antitumor activity against […] xenografted in Kunming mouse assessed as suppression of tumor weight at 3 mg/kg, iv dosed every day starting from day 8 after tumor cell inoculation; format: functional
HepG2 [31] = experiment: Cytotoxicity against human HepG2 cells assessed as reduction in cell viability up to 20 uM after 24 to 72 hrs by MTT assay; format: functional, cell-based

Drug uptake [2]: Dose-dependent effect | Drug uptake [21]: Not Active | Drug uptake [25]: Tde | Drug uptake [28]: Not Active
Structure (SMILES): Cl.Cl.NCCCCNCCCCN1C(=O)c2cccc3c(-c4cc(=O)c5ccccc5o4)ccc(c23)C1=O
Activity (SMMC-7721 [1]): inactive | Activity (HepG2 [3]): inactive | Activity (HepG2 [4]): inactive | Activity (HepG2 [5]): inactive | Activity (HepG2 [6]): Active | inhibition (HepG2 [7]): inactive | Activity (SMMC-7721 [8]): inactive | Activity (Mus musculus [9]): Non-Toxic | Activity (HepG2 [10]): inactive | Activity (Mus musculus [11]): Non-Toxic | Activity (HepG2 [12]): inactive | Activity (SMMC-7721 [13]): inactive | Activity (Mus musculus [14]): Non-Toxic | Activity (HepG2 [15]): inactive | Activity (HepG2 [16]): Active | viability at 20 µM (HepG2 [17]): 37.8% | Activity (HepG2 [18]): 8.91% | Activity (HepG2 [19]): Dose-dependent effect | Activity (SMMC-7721 [20]): inactive | Activity (HepG2 [22]): inactive | Activity (Mus musculus [23]): Non-Toxic | Activity (SMMC-7721 [24]): Dose-dependent effect | Activity (HepG2 [26]): inactive | Activity (HepG2 [27]): Dose-dependent effect | Activity (SMMC-7721 [29]): Active | Activity (HepG2 [30]): Dose-dependent effect | Activity (H22): 60.4% | Activity (HepG2 [31]): Active
